Results taken from US6030940A, “Peptide analog inhibitors of urokinase receptor activity” (Chiron Corporation, priority 1997, dated 2000).
“And” between values parts separate entries of the source, which are not always exact repeats. Equal entries are not always repeated. Where two headings read alike, the source gives them in different places. Square brackets hold non-standard residues; d marks the D form. Ends that are not written are not given here. Peptide text beside a SMILES is read from it. 1Nal = N[C@@H](Cc1cccc2ccccc12)C(=O)O

Tests used:
soluble uPAR = biological target: T1, soluble uPAR (Homo sapiens, UniProt Q03405); test: 125I-ATF competition binding to immobilized soluble uPAR (Activity Assay); conditions: competition with iodinated human uPA ATF tracer (100-500 pM), 2h at room temperature, PBS/0.1% BSA, triplicate
T1 construct: Purified soluble uPAR was biotinylated
Text: Purified soluble uPAR was biotinylated with NHS-biotin (Molecular Probes) and immobilized at 0.3 Tg/mL in phosphate-buffered saline (PBS)/0.1% BSA on streptavidin-coated Immulon-2 96-well Removawell plates. Human uPA N-terminal fragment (ATF; from M. Shuman, University of California, San Francisco) was iodinated by the Iodo-Gen method (Pierce). Unincorporated ^125 I was separated from labeled protein by Sephadex G-25 chromatography. The specific activity of the labeled protein was between 5×10^5 and 1×10^6 […]. The iodinated tracer (100-500 pM) was incubated with the peptides prepared in Example 1 triplicate for 2h at room temperature in PBS/0.1% BSA in a total volume of 200 TL. The plates were washed with PBS/0.1% BSA 3X, and remaining bound radioactivity was measured on an LKB 1277 Gammamaster. Scatchard analysis was performed by using the LIGAND program (Biosoft, Milltown, N.J.).

[1] = U937 fibroblast cells; S. A. Rabbani et al.; cited from earlier work
[2] = system: SaOS-2 osteosarcoma cell line; conditions: S. A. Rabbani et al.; cited from earlier work
uPAR = uPAR (Homo sapiens, UniProt Q03405); conditions: E. Appella et al., J Biol Chem (1987), cited from earlier work
Sequence of uPAR (Q03405 23-335): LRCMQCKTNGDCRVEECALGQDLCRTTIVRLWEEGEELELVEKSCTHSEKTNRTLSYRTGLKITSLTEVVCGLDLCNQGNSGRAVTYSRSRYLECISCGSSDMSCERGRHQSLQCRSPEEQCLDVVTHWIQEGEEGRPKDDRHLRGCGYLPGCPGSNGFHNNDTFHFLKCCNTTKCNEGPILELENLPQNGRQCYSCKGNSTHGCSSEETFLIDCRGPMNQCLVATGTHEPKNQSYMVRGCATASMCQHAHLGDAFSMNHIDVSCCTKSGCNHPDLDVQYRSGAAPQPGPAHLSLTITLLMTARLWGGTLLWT

T1 sequence (Q03405 23-305 limits assumed): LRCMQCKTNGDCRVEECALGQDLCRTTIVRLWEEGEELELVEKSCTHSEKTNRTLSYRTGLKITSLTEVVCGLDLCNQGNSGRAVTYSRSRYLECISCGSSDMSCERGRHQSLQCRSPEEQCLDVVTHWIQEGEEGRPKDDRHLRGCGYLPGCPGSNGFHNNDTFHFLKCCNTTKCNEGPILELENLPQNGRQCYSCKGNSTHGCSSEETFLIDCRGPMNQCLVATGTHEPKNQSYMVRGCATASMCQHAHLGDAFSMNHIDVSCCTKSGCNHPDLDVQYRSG

| Molecule | IC50 (soluble uPAR; read-out: IC50) | also measured |
| --- | --- | --- |
| CC(C)C[C@H](NC(=O)[C@H](Cc1ccc(O)cc1)NC(=O)[C@H](CCC(N)=O)NC(=O)CNC(=O)[C@H](Cc1ccccc1)NC(=O)[C@H](CC(N)=O)NC(=O)[C@@H](N)CC(C)C)C(=O)N[C@@H](Cc1cccc2ccccc12)C(=O)N[C@@H](Cc1ccc(O)cc1)C(=O)N[C@H](C(=O)O)[C@@H](C)O [SEQ ID NO: 4, LNFGQYLnAYT] (H-LNFGQYL[1Nal]YT-OH) | – | IC50 (soluble uPAR; IC50 (nM)): 7 nM and 6 nM |
| CC(C)C[C@H](NC(=O)[C@H](Cc1ccc(O)cc1)NC(=O)[C@H](CCC(N)=O)NC(=O)[C@@H](CO)NC(=O)[C@H](Cc1ccccc1)NC(=O)[C@H](CC(N)=O)NC(=O)[C@@H](N)CC(C)C)C(=O)N[C@@H](Cc1c[nH]c2ccccc12)C(=O)N[C@@H](Cc1ccc(O)cc1)C(=O)N[C@H](C(=O)O)[C@@H](C)O [SEQ ID NO: 5, LNFdSQYLWYT] (H-LNF[dS]QYLWYT-OH) | 7 nM and 11 nM | – |
| fucosylated EGF-like domain: fucosylated EGF-like domain (uPA4-43, produced by cleavage from pro-uPA) (LHQVPSNCDCLNGGT(Fuc)CVSNKYFSNIHWCNCPKKFGGQHCE; cysteine pairing not given here; UniProt P00749 24-63, looked up, fragment) | – | mitogenic activity [1]: Neither fucosylated nor non-fucosylated EGF-like domain was mitogenic; mitogenic activity [2]: mitogenic |
| uPA12-32: The critical domain alone, residues 12-32 of the uPA EGF-like domain (DCLNGGTCVSNKYFSNIHWCN; UniProt P00749 32-52, looked up, fragment) | – | affinity relative to intact ATF (fold less) (uPAR): about 100 fold; Kd (uPAR; read-out: affinity for uPAR): 40 nM |
| CC(C)C[C@H](NC(=O)[C@H](Cc1ccc(O)cc1)NC(=O)[C@H](CS)NC(=O)[C@@H](CO)NC(=O)[C@H](Cc1ccccc1)NC(=O)[C@H](CS)NC(=O)[C@@H](N)CC(C)C)C(=O)N[C@@H](Cc1cccc2ccccc12)C(=O)N[C@@H](Cc1ccc(O)cc1)C(=O)N[C@H](C(=O)O)[C@@H](C)O [SEQ ID NO: 10, LCFdSCYLnAYT] (H-LCF[dS]CYL[1Nal]YT-OH) | 79 ± 10 nM | – |
| CC(C)C[C@H](NC(=O)[C@H](Cc1ccc(O)cc1)NC(=O)[C@H](CCC(N)=O)NC(=O)[C@@H](CO)NC(=O)[C@H](Cc1ccccc1)NC(=O)[C@H](CC(N)=O)NC(=O)[C@@H](N)CC(C)C)C(=O)N[C@@H](Cc1cccc2ccccc12)C(=O)N[C@@H](Cc1ccc(O)cc1)C(=O)N[C@H](C(=O)O)[C@@H](C)O [SEQ ID NO: 7, LNFdSQYLnAYT] (H-LNF[dS]QYL[1Nal]YT-OH) | 33 ± 3 nM | – |
| CC(C)C[C@H](NC(=O)[C@H](Cc1ccc(O)cc1)NC(=O)[C@H](CCC(N)=O)NC(=O)CNC(=O)[C@H](Cc1ccccc1)NC(=O)[C@H](CC(N)=O)NC(=O)[C@@H](N)CC(C)C)C(=O)N[C@@H](Cc1c[nH]c2ccccc12)C(=O)N[C@@H](Cc1ccc(O)cc1)C(=O)N[C@H](C(=O)O)[C@@H](C)O [SEQ ID NO: 1, LNFGQYLWYT] (H-LNFGQYLWYT-OH) | 41 ± 17 nM | – |
| CC(C)C[C@H](NC(=O)[C@H](Cc1ccc(O)cc1)NC(=O)[C@H](CS)NC(=O)[C@@H](CO)NC(=O)[C@H](Cc1ccccc1)NC(=O)[C@H](CS)NC(=O)[C@@H](N)CC(C)C)C(=O)N[C@@H](Cc1c[nH]c2ccccc12)C(=O)N[C@@H](Cc1ccc(O)cc1)C(=O)N[C@H](C(=O)O)[C@@H](C)O [SEQ ID NO: 9, LCFdSCYLWYT] (H-LCF[dS]CYLWYT-OH) | 9 nM and 23 nM | – |
| CC(C)C[C@H](NC(=O)[C@H](Cc1ccc(O)cc1)NC(=O)[C@H](CS)NC(=O)[C@@H](CO)NC(=O)[C@H](Cc1ccccc1)NC(=O)[C@H](CC(N)=O)NC(=O)[C@@H](N)CC(C)C)C(=O)N[C@@H](Cc1c[nH]c2ccccc12)C(=O)N[C@@H](CS)C(=O)N[C@H](C(=O)O)[C@@H](C)O [SEQ ID NO: 11, LNFdSCYLWCT] (H-LNF[dS]CYLWCT-OH) | 225 ± 40 nM | – |
| CC(C)C[C@H](NC(=O)[C@H](Cc1ccc(O)cc1)NC(=O)[C@@H](CS)NC(=O)CNC(=O)[C@H](Cc1ccccc1)NC(=O)[C@H](CC(N)=O)NC(=O)[C@@H](N)CC(C)C)C(=O)N[C@@H](Cc1c[nH]c2ccccc12)C(=O)N[C@@H](CS)C(=O)N[C@H](C(=O)O)[C@@H](C)O [SEQ ID NO: 8, LNFGdCYLWCT] (H-LNFG[dC]YLWCT-OH) | 8 nM and 14 nM | – |
